Columns and labels:
Format in all cases: in vivo
Lindernia pyxidaria [1] = experiment: Test Example 11: herbicidal effect test by soil treatment in paddy field; settings: 120 g/10a active ingredient, 14 days after treatment
In short: (§1)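 Weed suppression rate (%) was calculated as (1 − mean treated dry weight / mean untreated dry weight) × 100 at 14 days after treatment, two replicates per plot. Seeds were sown at 0–1 cm in flooded (about 3 cm) puddled paddy soil and treated immediately at 120 g active ingredient per 10 are.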

Echinochloa crus-galli [2] = experiment: as above; settings: 120 g/10a active ingredient, 14 days after treatment
In short: as §1

Monochoria vaginalis [3] = experiment: as above; settings: 120 g/10a active ingredient, 14 days after treatment
In short: as §1

Scirpus juncoides [4] = experiment: as above; settings: 120 g/10a active ingredient, 14 days after treatment
In short: as §1

Amaranthus viridis [5] = experiment: Test Example 14: herbicidal effect test by foliage treatment in upland field; settings: 7 days after sowing, 120 g/10a, 14 days after treatment
In short: (§2)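 Weeds sown 20 seeds each in alluvial field soil; 7 days after sowing, water-diluted emulsifiable concentrate sprayed at 100 L per 10 are, 120 g active ingredient per 10 are. Suppression rate (%) from dry weight versus untreated plots at 14 days, two replicates.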

Echinochloa crus-galli [6] = experiment: as above; settings: 7 days after sowing, 120 g/10a, 14 days after treatment
In short: as §2

Amaranthus viridis [7] = experiment: Test Example 13: herbicidal effect test by soil treatment in upland field; settings: 120 g/10a, 14 days after treatment
In short: (§3)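 Suppression rate (%) is calculated from mean plant dry weight in treated versus untreated plots, 14 days after treatment, with duplicate plots per concentration. Seeds (20 per species) are mixed into the surface centimetre of alluvial soil, and the diluted emulsifiable concentrate is sprayed onto the soil the following day at 120 g a.i. per 10 are.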

crabgrass [8] = experiment: as above; settings: 120 g/10a, 14 days after treatment
In short: as §3

Echinochloa crus-galli [9] = experiment: as above; settings: 120 g/10a, 14 days after treatment
In short: as §3

Chenopodium album [10] = experiment: as above; settings: 120 g/10a, 14 days after treatment
In short: as §3

crabgrass [11] = experiment: Test Example 14: herbicidal effect test by foliage treatment in upland field; settings: 7 days after sowing, 120 g/10a, 14 days after treatment
In short: as §2

Chenopodium album [12] = experiment: as above; settings: 7 days after sowing, 120 g/10a, 14 days after treatment
In short: as §2

Lindernia pyxidaria [13] = experiment: Test Example 12: herbicidal effect test by treatment during growing period in paddy field; settings: 120 g/10a; treatment seven days after sowing in flooded paddy pot; assessed 14 days after treatment
In short: (§4)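 Read-out: weed suppression (%) = (1 − treated/untreated mean dry weight) × 100, scored 14 days after treatment with two replications. Pots held puddled paddy soil, 30 seeds per species sown 0–1 cm, flooded ~3 cm. Post-emergence dropwise water application at 7 days after sowing, 120 g a.i./10 are.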

Echinochloa crus-galli [14] = experiment: as above; settings: 120 g/10a; treatment seven days after sowing in flooded paddy pot; assessed 14 days after treatment
In short: as §4

Monochoria vaginalis [15] = experiment: as above; settings: 120 g/10a; treatment seven days after sowing in flooded paddy pot; assessed 14 days after treatment
In short: as §4

Scirpus juncoides [16] = experiment: as above; settings: 120 g/10a; treatment seven days after sowing in flooded paddy pot; assessed 14 days after treatment
In short: as §4

| SMILES | Weed suppression rate (%) Lindemia pyxidaria (Lindernia pyxidaria [1]) | Weed suppression rate (%) Echinochloa crus-galli (Echinochloa crus-galli [2]) | Weed suppression rate (%) Monochoria vaginalis (Monochoria vaginalis [3]) | Weed suppression rate (%) Scirpus juncoides (Scirpus juncoides [4]) | herbicidal effect, Amaranthus viridis (Amaranthus viridis [5]) | herbicidal effect, Echinochloa crus-galli (Echinochloa crus-galli [6]) | herbicidal effect, Amaranthus viridis (Amaranthus viridis [7]) | herbicidal effect, Crabgrass (crabgrass [8]) | herbicidal effect, Echinochloa crus-galli (Echinochloa crus-galli [9]) | herbicidal effect, Chenopodium album (Chenopodium album [10]) | herbicidal effect, Crabgrass (crabgrass [11]) | herbicidal effect, Chenopodium album (Chenopodium album [12]) | Weed suppression rate (%) Lindemia pyxidaria (Lindernia pyxidaria [13]) | Weed suppression rate (%) Echinochloa crus-galli (Echinochloa crus-galli [14]) | Weed suppression rate (%) Monochoria vaginalis (Monochoria vaginalis [15]) | Weed suppression rate (%) Scirpus juncoides (Scirpus juncoides [16]) |
| --- | --- | --- | --- | --- | --- | --- | --- | --- | --- | --- | --- | --- | --- | --- | --- | --- |
| Cc1cc(C)c(S(=O)(=O)n2ncn(C(=O)N(c3ccc(F)cc3C)C(C)C)c2=O)c(C)c1 [Compound 11-876] | 100% | 100% | 100% | 100% | 30% | 90% | 70% | 100% | 100% | 100% | 100% | 30% | 100% | 100% | 100% | 100% |
| CC(C)N(C(=O)n1cnn(S(=O)(=O)c2c(F)c(F)c(F)c(F)c2F)c1=O)c1ccccc1 [Compound 11-800] | 90% | 90% | 80% | 90% | 100% | 90% | 70% | 90% | 60% | 70% | 90% | 100% | 60% | 90% | 90% | 90% |
| CC(C)N(C(=O)n1cnn(S(=O)(=O)C(C)C)c1=O)c1ccc(F)c(F)c1F [Compound 11-62] | 100% | 100% | 90% | 100% | 100% | 100% | 100% | 70% | 70% | 60% | 100% | 90% | 80% | 100% | 100% | 100% |
| CC(C)N(C(=O)n1cnn(S(=O)(=O)N(C)C)c1=O)c1ccc(F)cc1F [Compound 11-1064] | 100% | 100% | 100% | 100% | 70% | 90% | 90% | 100% | 100% | 90% | 90% | 80% | 90% | 100% | 90% | 90% |

— patent US11076595B2, “1-(n,n-disubstituted carbamoyl) 4-(substituted sulfonyl)triazolin-5-one derivative, 4-(n,n-disubstituted carbamoyl) 1-(substituted sulfonyl)triazolin-5-one derivative, and herbicide containing said derivative as active ingredient” (HOKKO CHEMICAL INDUSTRY CO., LTD., priority 2017, dated 2021)
